Among the data in ChEMBL document CHEMBL1795272, “Rhamnetin production based on the rational design of the poplar O-methyltransferase enzyme and its biological activities” (Bioorg Med Chem Lett, 2011) are Activity and degraded values, retold here.

The test system of data set [1] is MDA-MB-231. Description: Effect on ERK2 protein level in human MDA-MB-231 cells at 20 uM up to 120 mins by Western blot analysis. The data set is classed as functional, cell-based. A general note: In western blotting, separated proteins are transferred to a membrane and probed.
Data set [2] addresses Mitogen-activated protein kinase 3 (Homo sapiens) (UniProt P27361). Description: Increase in ERK1 phosphorylation in human MDA-MB-231 cells at 20 uM by Western blot analysis. The data set is classed as cell-based. As to conditions: TDE = time-dependent effect.
In data set [3] the target is Mitogen-activated protein kinase 1 (Homo sapiens) (UniProt P28482). Description: Increase in ERK2 phosphorylation in human MDA-MB-231 cells at 20 uM by Western blot analysis. The data set is classed as cell-based. As to conditions: TDE = time-dependent effect.
Sequence of Mitogen-activated protein kinase 1 (Homo sapiens) (P28482 whole entry): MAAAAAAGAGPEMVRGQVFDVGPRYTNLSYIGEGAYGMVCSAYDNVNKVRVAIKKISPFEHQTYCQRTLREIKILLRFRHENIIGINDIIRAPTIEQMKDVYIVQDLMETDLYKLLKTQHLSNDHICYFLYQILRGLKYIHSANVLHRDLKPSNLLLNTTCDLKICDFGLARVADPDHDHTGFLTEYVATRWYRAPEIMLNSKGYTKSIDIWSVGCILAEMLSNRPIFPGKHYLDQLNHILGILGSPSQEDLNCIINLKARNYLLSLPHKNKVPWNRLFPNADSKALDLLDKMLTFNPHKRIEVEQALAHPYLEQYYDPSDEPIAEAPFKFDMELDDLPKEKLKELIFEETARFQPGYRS
The test system of data set [4] is MDA-MB-231. Description: Increase in Egr-1 protein expression in human MDA-MB-231 cells at 20 uM within 30 mins by Western blot analysis. The data set is classed as functional, cell-based.
In data set [5] the test system is MDA-MB-231. Description: Increase in c-Fos protein expression in human MDA-MB-231 cells at 20 uM within 30 mins by Western blot analysis. Format: functional, cell-based.
The subject of data set [6] is MDA-MB-231. Kind of data set: Induction of apoptosis in human MDA-MB-231 cells assessed as cleaved caspase-7 accumulation at 20 uM after 12 hrs by Western blot analysis. The data set is classed as functional, cell-based.
Data set [7] concerns the target Mitogen-activated protein kinase 8 (Homo sapiens) (UniProt P45983). Description: Increase in JNK1 phosphorylation in human MDA-MB-231 cells at 20 uM by Western blot analysis. Format: cell-based. As to conditions: TDE = time-dependent effect.
Data set [8] addresses Mitogen-activated protein kinase 9 (Homo sapiens) (UniProt P45984). Kind of data set: Increase in JNK2 phosphorylation in human MDA-MB-231 cells at 20 uM by Western blot analysis. The conditions noted are these: TDE = time-dependent effect. The data set is classed as cell-based.
Data set [9] in a line: Stability of the compound in DMEM media assessed as compound degradation at 25 ppm after 3 hrs by HPLC. The conditions noted are these: read-out: Activity. The data set is classed as physicochemical.
For data set [10], the system named is MDA-MB-231. Kind of data set: Effect on p38 kinase protein level in human MDA-MB-231 cells at 20 uM up to 120 mins by Western blot analysis. The data set is classed as functional, cell-based.
Data set [11] has as its system MDA-MB-231. Kind of data set: Effect on JNK2 protein level in human MDA-MB-231 cells at 20 uM up to 120 mins by Western blot analysis. Format: functional, cell-based.
Data set [12] concerns MDA-MB-231. Description: Effect on JNK1 protein level in human MDA-MB-231 cells at 20 uM up to 120 mins by Western blot analysis. Format: functional, cell-based.
The test system of data set [13] is MDA-MB-231. Description: Effect on ERK1 protein level in human MDA-MB-231 cells at 20 uM up to 120 mins by Western blot analysis. The data set is classed as functional, cell-based.
In data set [14] the target is MAP kinase p38 (Homo sapiens) (UniProt O15264+Q15759+Q16539+P53778). Description: Increase in p38 kinase phosphorylation in human MDA-MB-231 cells at 20 uM by Western blot analysis. The conditions noted are these: TDE = time-dependent effect. Format: cell-based.

The source made the active and inactive calls. The rule behind the calls is not given here.

Sequence of Mitogen-activated protein kinase 3 (Homo sapiens) (P27361 whole entry): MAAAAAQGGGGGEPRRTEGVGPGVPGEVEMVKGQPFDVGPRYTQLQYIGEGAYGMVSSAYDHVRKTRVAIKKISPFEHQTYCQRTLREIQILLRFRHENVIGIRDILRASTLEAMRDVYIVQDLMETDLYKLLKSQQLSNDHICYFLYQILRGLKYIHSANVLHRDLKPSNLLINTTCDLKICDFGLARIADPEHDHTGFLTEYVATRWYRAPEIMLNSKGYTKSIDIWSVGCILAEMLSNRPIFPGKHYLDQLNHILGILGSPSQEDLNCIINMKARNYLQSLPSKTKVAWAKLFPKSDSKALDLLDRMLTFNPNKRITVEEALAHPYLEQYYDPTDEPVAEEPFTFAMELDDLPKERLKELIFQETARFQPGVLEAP
Sequence of Mitogen-activated protein kinase 9 (Homo sapiens) (P45984 whole entry, looked up): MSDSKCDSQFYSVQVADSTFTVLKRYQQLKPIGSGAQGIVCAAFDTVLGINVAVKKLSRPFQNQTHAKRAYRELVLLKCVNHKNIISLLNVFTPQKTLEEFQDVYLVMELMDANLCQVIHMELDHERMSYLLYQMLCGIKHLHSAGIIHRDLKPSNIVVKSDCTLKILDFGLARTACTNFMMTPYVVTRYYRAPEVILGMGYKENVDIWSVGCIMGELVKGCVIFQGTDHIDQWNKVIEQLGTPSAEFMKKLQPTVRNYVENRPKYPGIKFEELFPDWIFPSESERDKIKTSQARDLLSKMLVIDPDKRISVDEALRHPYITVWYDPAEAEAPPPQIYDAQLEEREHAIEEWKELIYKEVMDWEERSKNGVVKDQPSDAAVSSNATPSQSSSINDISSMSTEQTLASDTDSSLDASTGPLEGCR
Sequence of Mitogen-activated protein kinase 8 (Homo sapiens) (P45983 whole entry): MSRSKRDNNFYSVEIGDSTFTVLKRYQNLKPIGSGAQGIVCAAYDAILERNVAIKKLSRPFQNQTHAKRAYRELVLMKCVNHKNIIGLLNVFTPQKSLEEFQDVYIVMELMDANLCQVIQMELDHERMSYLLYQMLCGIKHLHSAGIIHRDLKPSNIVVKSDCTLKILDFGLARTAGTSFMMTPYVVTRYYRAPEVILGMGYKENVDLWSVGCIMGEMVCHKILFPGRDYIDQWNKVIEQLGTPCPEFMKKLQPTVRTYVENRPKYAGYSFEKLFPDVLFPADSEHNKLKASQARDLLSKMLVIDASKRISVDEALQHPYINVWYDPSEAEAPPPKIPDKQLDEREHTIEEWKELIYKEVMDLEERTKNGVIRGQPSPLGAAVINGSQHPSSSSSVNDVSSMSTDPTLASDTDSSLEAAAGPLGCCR

Consider `COc1cc(O)c2c(=O)c(O)c(-c3ccc(O)c(O)c3)oc2c1` [RHAMNETIN], for which the result with MDA-MB-231 [1], in the data set on MDA-MB-231 [10], in the data set with MDA-MB-231 [11], with MDA-MB-231 [12] and in the data set on MDA-MB-231 [13] was inactive. In addition, the Activity entry in [2], in data set [3], in data set [7], in data set [8] and in data set [14] was “tde” each time. Further, the result in the data set on MDA-MB-231 [4], in the data set with MDA-MB-231 [5] and in the data set with MDA-MB-231 [6] was Active. The degraded at 3 h, 25 ppm in [9] is 4%.
As for `O=c1c(O)c(-c2ccc(O)c(O)c2)oc2cc(O)cc(O)c12` [QUERCETIN], the outcome in the data set on MDA-MB-231 [1], in the data set with MDA-MB-231 [10], in the data set on MDA-MB-231 [11], in the data set on MDA-MB-231 [12] and in the data set with MDA-MB-231 [13] was inactive. In addition, the Activity result in data set [2], in data set [3], in data set [7], in data set [8] and in [14] was “tde” each time. In addition, the result with MDA-MB-231 [4], in the data set with MDA-MB-231 [5] and in the data set on MDA-MB-231 [6] was Active. Also, in data set [9], the degraded at 3 h, 25 ppm came to 60%.
